The values below come from patent US20260166128A1, “HUMAN AMYLIN ANALOG, AND DERIVATIVE THEREOF AND USE THEREOF” (priority 2022, published 2026).

Numbered stars: 1 amine (or outer) side, 2 acyl side, 3 side chain; on linkers, the order of the positions; unused ones are H or OH. Bridge positions count the residues as written; N and C are the ends. Square brackets hold non-standard residues; d marks the D form. Side chains are listed from the residue outwards. Peptide text beside a SMILES is read from it. * marks the point of attachment. C20 diacid = O=C(O)CCCCCCCCCCCCCCCCCCC(=O)*; C18 diacid = O=C(O)CCCCCCCCCCCCCCCCC(=O)*; γGlu = O=C(O)[C@H](CCC(=O)[*:2])N[*:1]; Hyp = O=C(O)[C@@H]1C[C@@H](O)CN1; AEEA = NCCOCCOCC(=O)O

The assay concerns the target T1, human amylin receptor (Homo sapiens, UniProt O60896+P30988).
T1 construct: host or cells: CHO-K1/Ga15/AMY3 cells, further stably transfected with a CRE-luciferase plasmid
T1 sequence (P30988 25-474): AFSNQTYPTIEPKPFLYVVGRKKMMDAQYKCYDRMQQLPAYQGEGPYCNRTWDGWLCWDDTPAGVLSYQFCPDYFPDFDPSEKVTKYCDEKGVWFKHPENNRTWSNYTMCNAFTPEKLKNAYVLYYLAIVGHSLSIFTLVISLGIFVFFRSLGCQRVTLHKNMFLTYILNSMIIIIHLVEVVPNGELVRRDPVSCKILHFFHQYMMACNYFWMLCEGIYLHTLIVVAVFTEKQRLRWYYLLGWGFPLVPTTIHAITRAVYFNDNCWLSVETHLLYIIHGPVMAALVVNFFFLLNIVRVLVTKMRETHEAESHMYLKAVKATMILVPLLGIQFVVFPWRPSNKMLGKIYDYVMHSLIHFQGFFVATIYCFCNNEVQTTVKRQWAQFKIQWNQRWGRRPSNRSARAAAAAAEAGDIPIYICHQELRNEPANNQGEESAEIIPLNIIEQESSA
T1 sequence (O60896 24-148 partner): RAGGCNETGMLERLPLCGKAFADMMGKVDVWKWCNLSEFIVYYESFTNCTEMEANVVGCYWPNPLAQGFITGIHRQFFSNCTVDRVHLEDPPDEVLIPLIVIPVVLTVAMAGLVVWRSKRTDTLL
Put plainly: Luciferase assay of amylin derivatives in amylin receptor/CRE-luc CHO cell line. The note with it: CHO-K1/Ga15/AMY3 CRE-luc cells, 24 hours incubation, F12 medium containing 10% FBS; read-out: EC50. Format: cell-based.

Procedure: The experiment was intended to detect the activity or efficacy of the amylin derivatives on a human amylin receptor in vitro by luciferase assay.
50 μL of growth medium (F12 medium containing 10% FBS) was added into each well of a white 96-well plate, and the stably transfected amylin/CRE-lue CHO cells were inoculated into the white 96-well plate at a density of about 20,000 cells/well for activity determination.

With `CC[C@H](C)[C@H](NC(=O)[C@@H]1CCCN1C(=O)CNC(=O)[C@H](CC(C)C)NC(=O)[C@H](CC(N)=O)NC(=O)[C@H](CCCCNC(=O)COCCOCCNC(=O)CC[C@H](NC(=O)CCCCCCCCCCCCCCCCC(=O)O)C(=O)O)NC(=O)[C@H](CO)NC(=O)[C@H](CO)NC(=O)[C@H](Cc1c[nH]cn1)NC(=O)[C@H](CCCNC(=N)N)NC(=O)[C@H](CC(C)C)NC(=O)[C@H](Cc1ccccc1)NC(=O)[C@H](CC(=O)O)NC(=O)[C@H](C)NC(=O)[C@H](CC(C)C)NC(=O)[C@H](CCCNC(=N)N)NC(=O)[C@H](CCC(N)=O)NC(=O)[C@@H](NC(=O)[C@H](C)NC(=O)[C@@H]1CSSC[C@H](NC(=O)[C@@H](N)CCCNC(=N)N)C(=O)N[C@@H](CC(N)=O)C(=O)N[C@@H]([C@@H](C)O)C(=O)N[C@@H](C)C(=O)N[C@@H]([C@@H](C)O)C(=O)N1)[C@@H](C)O)C(=O)N[C@@H](CC(C)C)C(=O)N1CCC[C@H]1C(=O)N1CCC[C@H]1C(=O)N[C@H](C(=O)N[C@@H](CC(N)=O)C(=O)N[C@H](C(=O)NCC(=O)N[C@@H](CO)C(=O)N[C@@H](CC(N)=O)C(=O)N[C@H](C(=O)N1C[C@H](O)C[C@H]1C(N)=O)[C@@H](C)O)C(C)C)[C@@H](C)O` [PD115] (H-RCNTATCATQRLADFLRHSSK([AEEA-γGlu-C18 diacid])NLGPILPPTNVGSNT[Hyp]-NH2; disulfide 2-7), the EC50 was determined as 0.011 nM.

As to `CC[C@H](C)[C@H](NC(=O)[C@@H]1CCCN1C(=O)[C@H](CCCCN)NC(=O)[C@H](CC(C)C)NC(=O)[C@H](CC(N)=O)NC(=O)[C@H](CC(N)=O)NC(=O)[C@H](CO)NC(=O)[C@H](CO)NC(=O)[C@H](Cc1c[nH]cn1)NC(=O)[C@H](CCCNC(=N)N)NC(=O)[C@H](CC(C)C)NC(=O)[C@H](Cc1ccccc1)NC(=O)[C@H](CC(=O)O)NC(=O)[C@H](C)NC(=O)[C@H](CC(C)C)NC(=O)[C@H](CCCNC(=N)N)NC(=O)[C@H](CCC(N)=O)NC(=O)[C@@H](NC(=O)[C@H](C)NC(=O)[C@@H]1CSSC[C@H](NC(=O)[C@H](CCCCN)NC(=O)CC[C@H](NC(=O)COCCOCCNC(=O)COCCOCCNC(=O)CCCCCCCCCCCCCCCCCCC(=O)O)C(=O)O)C(=O)N[C@@H](CC(N)=O)C(=O)N[C@@H]([C@@H](C)O)C(=O)N[C@@H](C)C(=O)N[C@@H]([C@@H](C)O)C(=O)N1)[C@@H](C)O)C(=O)N[C@@H](CC(C)C)C(=O)N1CCC[C@H]1C(=O)N1CCC[C@H]1C(=O)N[C@H](C(=O)N[C@@H](CC(N)=O)C(=O)N[C@H](C(=O)NCC(=O)N[C@@H](CO)C(=O)N[C@@H](CC(N)=O)C(=O)N[C@H](C(=O)N1CCC[C@H]1C(N)=O)[C@@H](C)O)C(C)C)[C@@H](C)O` [PD188] ({C20 diacid-AEEA-AEEA-γGlu}-KCNTATCATQRLADFLRHSSNNLKPILPPTNVGSNTP-NH2; disulfide 2-7 (inferred)), the EC50 was 0.025 nM.

Take `CC[C@H](C)[C@H](NC(=O)[C@@H]1CCCN1C(=O)[C@H](Cc1c[nH]cn1)NC(=O)[C@H](CC(C)C)NC(=O)[C@H](CC(N)=O)NC(=O)[C@H](CC(N)=O)NC(=O)[C@H](CO)NC(=O)[C@H](CO)NC(=O)[C@H](Cc1c[nH]cn1)NC(=O)[C@H](CCCNC(=N)N)NC(=O)[C@H](CC(C)C)NC(=O)[C@H](Cc1ccccc1)NC(=O)[C@H](CC(=O)O)NC(=O)[C@H](C)NC(=O)[C@H](CC(C)C)NC(=O)[C@H](CCCNC(=N)N)NC(=O)[C@H](CCC(N)=O)NC(=O)[C@@H](NC(=O)[C@H](C)NC(=O)[C@@H]1CSSC[C@H](NC(=O)[C@H](CCCCN)NC(=O)CC[C@H](NC(=O)CCCCCCCCCCCCCCCCCCC(=O)O)C(=O)O)C(=O)N[C@@H](CC(N)=O)C(=O)N[C@@H]([C@@H](C)O)C(=O)N[C@@H](C)C(=O)N[C@@H]([C@@H](C)O)C(=O)N1)[C@@H](C)O)C(=O)N[C@@H](CC(C)C)C(=O)N1CCC[C@H]1C(=O)N1CCC[C@H]1C(=O)N[C@H](C(=O)N[C@@H](CC(N)=O)C(=O)N[C@H](C(=O)NCC(=O)N[C@@H](CO)C(=O)N[C@@H](CC(N)=O)C(=O)N[C@H](C(=O)N1C[C@H](O)C[C@H]1C(N)=O)[C@@H](C)O)C(C)C)[C@@H](C)O` [PD159] ({C20 diacid-γGlu}-KCNTATCATQRLADFLRHSSNNLHPILPPTNVGSNT[Hyp]-NH2; disulfide 2-7): the EC50 was found to be 0.037 nM.

`CC[C@H](C)[C@H](NC(=O)[C@@H]1CCCN1C(=O)[C@H](CCCCN)NC(=O)[C@H](CC(C)C)NC(=O)[C@H](CC(N)=O)NC(=O)[C@H](CC(N)=O)NC(=O)[C@H](CO)NC(=O)[C@H](CO)NC(=O)[C@H](Cc1c[nH]cn1)NC(=O)[C@H](CCCNC(=N)N)NC(=O)[C@H](CC(C)C)NC(=O)[C@H](Cc1ccccc1)NC(=O)[C@H](CC(=O)O)NC(=O)[C@H](C)NC(=O)[C@H](CC(C)C)NC(=O)[C@H](CCCNC(=N)N)NC(=O)[C@H](CCC(N)=O)NC(=O)[C@@H](NC(=O)[C@H](C)NC(=O)[C@@H]1CSSC[C@H](NC(=O)[C@H](CCCCN)NC(=O)[C@H](CC(=O)O)NC(=O)COCCOCCNC(=O)COCCOCCNC(=O)CCCCCCCCCCCCCCCCCCC(=O)O)C(=O)N[C@@H](CC(N)=O)C(=O)N[C@@H]([C@@H](C)O)C(=O)N[C@@H](C)C(=O)N[C@@H]([C@@H](C)O)C(=O)N1)[C@@H](C)O)C(=O)N[C@@H](CC(C)C)C(=O)N1CCC[C@H]1C(=O)N1CCC[C@H]1C(=O)N[C@H](C(=O)N[C@@H](CC(N)=O)C(=O)N[C@H](C(=O)NCC(=O)N[C@@H](CO)C(=O)N[C@@H](CC(N)=O)C(=O)N[C@H](C(=O)N1CCC[C@H]1C(N)=O)[C@@H](C)O)C(C)C)[C@@H](C)O` [PD194] ({C20 diacid-AEEA-AEEA}-DKCNTATCATQRLADFLRHSSNNLKPILPPTNVGSNTP-NH2; disulfide 3-8 (inferred)): the EC50 was found to be 0.074 nM.

On to `CC[C@H](C)[C@H](NC(=O)[C@@H]1CCCN1C(=O)[C@H](CCCCN)NC(=O)[C@H](CC(C)C)NC(=O)[C@H](CC(N)=O)NC(=O)[C@H](CC(N)=O)NC(=O)[C@H](CO)NC(=O)[C@H](CO)NC(=O)[C@H](Cc1c[nH]cn1)NC(=O)[C@H](CCCNC(=N)N)NC(=O)[C@H](CC(C)C)NC(=O)[C@H](Cc1ccccc1)NC(=O)[C@H](CC(=O)O)NC(=O)[C@H](C)NC(=O)[C@H](CC(C)C)NC(=O)[C@H](CCCNC(=N)N)NC(=O)[C@H](CCC(N)=O)NC(=O)[C@@H](NC(=O)[C@H](C)NC(=O)[C@@H]1CSSC[C@H](NC(=O)[C@H](CCCCN)NC(=O)[C@H](CC(=O)O)NC(=O)COCCOCCNC(=O)COCCOCCNC(=O)CCCCCCCCCCCCCCCCCCC(=O)O)C(=O)N[C@@H](CC(N)=O)C(=O)N[C@@H]([C@@H](C)O)C(=O)N[C@@H](C)C(=O)N[C@@H]([C@@H](C)O)C(=O)N1)[C@@H](C)O)C(=O)N[C@@H](CC(C)C)C(=O)N1CCC[C@H]1C(=O)N1CCC[C@H]1C(=O)N[C@H](C(=O)N[C@@H](CC(N)=O)C(=O)N[C@H](C(=O)NCC(=O)N[C@@H](CO)C(=O)N[C@@H](CC(N)=O)C(=O)N[C@H](C(=O)N1C[C@H](O)C[C@H]1C(N)=O)[C@@H](C)O)C(C)C)[C@@H](C)O` [PD182] ({C20 diacid-AEEA-AEEA}-DKCNTATCATQRLADFLRHSSNNLKPILPPTNVGSNT[Hyp]-NH2; disulfide 3-8), for which the EC50 worked out at 0.034 nM.

Take `CC[C@H](C)[C@H](NC(=O)[C@@H]1CCCN1C(=O)[C@H](CCCCN)NC(=O)[C@H](CC(C)C)NC(=O)[C@H](CC(N)=O)NC(=O)[C@H](CC(N)=O)NC(=O)[C@H](CO)NC(=O)[C@H](CO)NC(=O)[C@H](Cc1c[nH]cn1)NC(=O)[C@H](CCCNC(=N)N)NC(=O)[C@H](CC(C)C)NC(=O)[C@H](Cc1ccccc1)NC(=O)[C@H](CC(=O)O)NC(=O)[C@H](C)NC(=O)[C@H](CC(C)C)NC(=O)[C@H](CCCNC(=N)N)NC(=O)[C@H](CCC(N)=O)NC(=O)[C@@H](NC(=O)[C@H](C)NC(=O)[C@@H]1CSSC[C@H](NC(=O)[C@H](CCCCN)NC(=O)COCCOCCNC(=O)COCCOCCNC(=O)[C@H](CC(=O)O)NC(=O)CCCCCCCCCCCCCCCCCCC(=O)O)C(=O)N[C@@H](CC(N)=O)C(=O)N[C@@H]([C@@H](C)O)C(=O)N[C@@H](C)C(=O)N[C@@H]([C@@H](C)O)C(=O)N1)[C@@H](C)O)C(=O)N[C@@H](CC(C)C)C(=O)N1CCC[C@H]1C(=O)N1CCC[C@H]1C(=O)N[C@H](C(=O)N[C@@H](CC(N)=O)C(=O)N[C@H](C(=O)NCC(=O)N[C@@H](CO)C(=O)N[C@@H](CC(N)=O)C(=O)N[C@H](C(=O)N1CCC[C@H]1C(N)=O)[C@@H](C)O)C(C)C)[C@@H](C)O` [PD193] ({C20 diacid}-D[AEEA][AEEA]KCNTATCATQRLADFLRHSSNNLKPILPPTNVGSNTP-NH2; disulfide 5-10 (inferred)): the EC50 amounted to 0.074 nM.
